According to ChEMBL document CHEMBL1149151, “Macrocyclization in the design of non-phosphorus-containing Grb2 SH2 domain-binding ligands” (J Med Chem, 2004):
Where “and” joins values, the source holds several entries; their conditions need not be identical. Equal entries are not always repeated.

Legend:
[1] = target: T1, Growth factor receptor-bound protein 2 (Homo sapiens, UniProt P62993); experiment: In vitro Growth factor receptor bound protein 2-binding affinity in ELISA method
[2] = koff value surface plasmon resonance (SPR) method; type: ADME
[3] = kd value surface plasmon resonance (SPR) method; type: ADME
[4] = target: T1, Growth factor receptor-bound protein 2; experiment: In vitro Growth factor receptor bound protein 2-binding affinity in surface plasmon resonance (SPR) method

T1 sequence (P62993 whole entry): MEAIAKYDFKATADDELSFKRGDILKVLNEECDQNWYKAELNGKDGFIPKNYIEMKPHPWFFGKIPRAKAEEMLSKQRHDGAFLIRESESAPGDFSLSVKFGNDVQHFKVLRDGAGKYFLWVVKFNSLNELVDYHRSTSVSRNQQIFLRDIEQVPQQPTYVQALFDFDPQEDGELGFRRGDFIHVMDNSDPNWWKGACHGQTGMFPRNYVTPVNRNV

SMILES	IC50 [1]	Koff [2]	Kd [3]	IC50 [4]
NC(=O)C[C@H](NC(=O)C1(NC(=O)[C@H](Cc2ccc(C(C(=O)O)C(=O)O)cc2)NC(=O)C(=O)O)CCCCC1)C(=O)NCCCc1cccc2ccccc12	22.1 nM	–	–	–
NC(=O)C[C@@H]1NC(=O)C2(CCCCC2)NC(=O)[C@@H](CC(=O)O)[C@@H](c2ccc(CP(=O)(O)O)cc2)/C=C/C[C@@H](Cc2cccc3ccccc23)CNC1=O	–	0.0056 s⁻¹	0.9 nM	1.4 nM and 12.1 nM
NC(=O)C[C@H](NC(=O)C1(NC(=O)[C@H](Cc2ccc(CP(=O)(O)O)cc2)NC(=O)C(=O)O)CCCCC1)C(=O)NCCCc1cccc2ccccc12	10 nM	0.11 s⁻¹	128 nM	~80 nM
NC(=O)C[C@@H]1NC(=O)C2(CCCCC2)NC(=O)[C@@H](CC(=O)O)[C@@H](c2ccc(C(C(=O)[O-])C(=O)[O-])cc2)/C=C/C[C@@H](Cc2cccc3ccccc23)CNC1=O.[Na+].[Na+]	4.3 nM	0.044 s⁻¹	12.1 nM	12.1 nM
